Test results published in US20130011473A1, “Preparation Method Of The Solid Formulation Of Clopidogrel Bisulfate” (priority 2010, published 2013).
Counter-ions that a name gives are not always drawn. Like-named read-outs stand apart in the source and are kept apart here.

Experiments:
phosphodiesterase = conditions: cited from earlier work

angle of repose (after being mixed with Colloidal Silicon Dioxide)	angle of repose (as is)	Compound	phosphodiesterase activity (phosphodiesterase)
40	greater than 45	COC(=O)[C@H](c1ccccc1Cl)N1CCc2sccc2C1 [Clopidgrel salt, methyl(+)-(S)-α(2-chlorophenyl)-6,7-dihydrothieno[3,2-c]pyridine-5(4H)-acetate sulfate (1:1)]	–
–	–	COC(=O)[C@H](c1ccccc1Cl)N1CCc2sccc2C1 [Clopidogrel]	did not inhibit
